# Reference: ChEMBL document CHEMBL6114962, “Nucleoside antiviral agents with atypical structures and new targets” (Bioorg Med Chem Lett, 2025)
# pEC50, pIC50: −log10 of the molar value.
# Legend:
# Human alphaherpesvirus 3 [1] = experiment: Antiviral activity against Varicella zoster virus infected in human HEL cells assessed as inhibition of plaque formation measured for 3 days; type: functional, organism-based; conditions: Human alphaherpesvirus 3, HEL, 72 h
# SARS-CoV [2] = experiment: Antiviral activity against SARS-CoV Frankfurt-1 infected in Vero E6 cells assessed as reduction in viral replication; type: functional, organism-based; conditions: Severe acute respiratory syndrome-related coronavirus, Frankfurt-1, Vero C1008
# SARS-CoV [3] = experiment: Antiviral activity against SARS-CoV HKU39849 infected in Vero E6 cells assessed as reduction in viral replication; type: functional, organism-based; conditions: Severe acute respiratory syndrome-related coronavirus, HKU39849, Vero C1008
# [4] = Cytotoxicity against African green monkey Vero E6 cells assessed as reduction in cell viability measured after 72 hrs by WST-1 assay; type: toxicity, cell-based, Vero C1008; conditions: chlorocebus sabaeus
# [5] = Cytotoxicity against African green monkey Vero E6 cells assessed as reduction in cell viability by Cell titer-Glo luminescent assay; type: toxicity, cell-based; conditions: chlorocebus sabaeus
# [6] = molecular target: Histone-lysine N-methyltransferase SETD2 (Homo sapiens, UniProt Q9BYW2); experiment: Inhibition of human recombinant […] N-terminal His-tagged SETD2 (1347to1711 residues) extracted from Escherichia coli BL21 (DE3) using biotin-tagged Histone H3 and 3H-SAM as substrate incubated for 1 hr by TopCount scintillation proximity assay
# HEL = experiment: Cytotoxicity against human HEL cells assessed as reduction in cell viability incubated for 24 hrs by MTT assay; type: functional
# SARS-CoV-2 = experiment: Antiviral activity against SARS CoV-2 Omicron B1.1.529 infected in Vero E6 cells at 0.02 MOI assessed as reduction in viral RNA growth incubated for 24 hrs by qRT-PCR analysis; type: functional, organism-based; conditions: Severe acute respiratory syndrome coronavirus 2, Omicron B1.1.529, Vero C1008, 24 h
# SARS-CoV [7] = experiment: Antiviral activity against SARS-CoV Urbani infected in Vero E6 cells at 0.01 to 0.025 MOI assessed as inhibition of virus induced cytopathic effect; type: functional, organism-based; conditions: Severe acute respiratory syndrome-related coronavirus, Vero C1008
# [8] = Cytotoxicity against African green monkey Vero E6 cells assessed as reduction in cell viability by neutral red uptake assay; type: toxicity, cell-based, Vero C1008; conditions: chlorocebus sabaeus
# [9] = molecular target: Replicase polyprotein 1ab (Severe acute respiratory syndrome coronavirus 2, UniProt P0DTD1); experiment: Inhibition of C-terminal SARS-CoV-2 nsp14 N7-methyltransferase activity incubated for 30 mins in presence of SAM by Liquid scintillation analysis
# Human coronavirus OC43 = experiment: Antiviral activity against Human coronavirus OC43 infected in Vero cells assessed as reduction in viral replication pre-incubated with virus for 1 hr followed by washout and compound treatment and measured after 3 days by qRT-PCR analysis; type: functional, organism-based; conditions: Betacoronavirus 1, Vero
# [10] = Cytotoxicity against African green monkey Vero cells; type: toxicity, cell-based; conditions: chlorocebus sabaeus
# Human alphaherpesvirus 3 [11] = experiment: Antiviral activity against Varicella zoster virus infected in human HEL cells assessed as reduction in plaque formation incubated for 72 hrs; type: functional, organism-based; conditions: Human alphaherpesvirus 3, HEL
# [12] = Cytotoxicity against human HEL cells; type: toxicity, cell-based
# HMEC-1 = experiment: Cytotoxicity against human HMEC-1 cells assessed as reduction in cell growth incubated for 24 hrs; type: functional
# Vaccinia virus = experiment: Antiviral activity against Vaccinia virus; type: functional, organism-based; conditions: Orthopoxvirus vaccinia
# [13] = Cytotoxicity against human HFF cells; type: toxicity, cell-based
# Ebolavirus = experiment: Antiviral activity against Ebola virus infected in Vero E6 cells assessed as virus-induced cytopathic effect incubated for 3 days by CPE assay; type: functional, organism-based; conditions: Orthoebolavirus, Vero C1008, 72 h
# [14] = Cytotoxicity against African green monkey Vero E6 cells assessed as reduction in cell growth; type: toxicity, cell-based; conditions: chlorocebus sabaeus
# [15] = Cytotoxicity against human HEL 299 cells; type: toxicity, cell-based
# Human alphaherpesvirus 1 = experiment: Antiviral activity against HSV-1; type: functional, organism-based
# Human alphaherpesvirus 2 = experiment: Antiviral activity against HSV-2; type: functional, organism-based
# Hepatitis C virus [16] = experiment: Antiviral activity against Hepatitis C virus infected in human Huh-7 cells assessed as reduction in viral infection incubated for 72 hrs by qRT-PCR analysis; type: functional, organism-based, Hepacivirus hominis; conditions: Huh-7, 72 h
# [17] = molecular target: RNA-directed RNA polymerase (Hepacivirus hominis, UniProt O39930); experiment: Inhibition of Hepatitis C virus NS5B polymerase
# Hepatitis C virus [18] = experiment: Antiviral activity against Hepatitis C virus infected in Vero E6 cells assessed as virus induced cytopathic effect; type: functional, organism-based, Hepacivirus hominis; conditions: Vero C1008
# Human alphaherpesvirus 3 [19] = experiment: Antiviral activity against Varicella zoster virus infected in human HEL cells assessed as reduction in plaque formation; type: functional, organism-based; conditions: Human alphaherpesvirus 3, HEL
# Influenza A virus [20] = experiment: Antiviral activity against influenza A virus H1N1 infected in dog MDCK cells assessed as reduction in virus induced cytopathic effect by CPE assay; type: functional, organism-based
# Influenza A virus [21] = experiment: Anti-influenza activity against influenza A virus H3N2 (A/California/2014) infected in dog MDCK cells incubated for 72 hrs by MTT assay; type: functional, organism-based
# [22] = Cytotoxicity against dog MDCK cells assessed as reduction in cell viability incubated for 48 hrs by CCK-8 assay; type: toxicity, cell-based, Canis lupus familiaris
# Human betaherpesvirus 5 = experiment: Antiviral activity against HCMV; type: functional, organism-based
# Influenza A virus [23] = experiment: Antiviral activity against influenza A virus A/WSN/33 (H1N1) infected in dog MDCK cells assessed as reduction in virus induced cytopathic effect measured after 48 hrs by crystal violet staining based assay; type: functional, organism-based
# Influenza A virus [24] = experiment: Antiviral activity against Influenza virus H3N2 (A/Hong Kong/8/68) infected in dog MDCK cells assessed as reduction in virus induced cytopathic effect measured after 48 hrs by crystal violet staining based assay; type: functional, organism-based
# [25] = Cytotoxicity against dog MDCK cells assessed as reduction in cell viability incubated for 72 hrs by CCK-8 assay; type: toxicity, cell-based, Canis lupus familiaris
# Sequence of Histone-lysine N-methyltransferase SETD2 (Q9BYW2 whole entry, the tested form may be a part): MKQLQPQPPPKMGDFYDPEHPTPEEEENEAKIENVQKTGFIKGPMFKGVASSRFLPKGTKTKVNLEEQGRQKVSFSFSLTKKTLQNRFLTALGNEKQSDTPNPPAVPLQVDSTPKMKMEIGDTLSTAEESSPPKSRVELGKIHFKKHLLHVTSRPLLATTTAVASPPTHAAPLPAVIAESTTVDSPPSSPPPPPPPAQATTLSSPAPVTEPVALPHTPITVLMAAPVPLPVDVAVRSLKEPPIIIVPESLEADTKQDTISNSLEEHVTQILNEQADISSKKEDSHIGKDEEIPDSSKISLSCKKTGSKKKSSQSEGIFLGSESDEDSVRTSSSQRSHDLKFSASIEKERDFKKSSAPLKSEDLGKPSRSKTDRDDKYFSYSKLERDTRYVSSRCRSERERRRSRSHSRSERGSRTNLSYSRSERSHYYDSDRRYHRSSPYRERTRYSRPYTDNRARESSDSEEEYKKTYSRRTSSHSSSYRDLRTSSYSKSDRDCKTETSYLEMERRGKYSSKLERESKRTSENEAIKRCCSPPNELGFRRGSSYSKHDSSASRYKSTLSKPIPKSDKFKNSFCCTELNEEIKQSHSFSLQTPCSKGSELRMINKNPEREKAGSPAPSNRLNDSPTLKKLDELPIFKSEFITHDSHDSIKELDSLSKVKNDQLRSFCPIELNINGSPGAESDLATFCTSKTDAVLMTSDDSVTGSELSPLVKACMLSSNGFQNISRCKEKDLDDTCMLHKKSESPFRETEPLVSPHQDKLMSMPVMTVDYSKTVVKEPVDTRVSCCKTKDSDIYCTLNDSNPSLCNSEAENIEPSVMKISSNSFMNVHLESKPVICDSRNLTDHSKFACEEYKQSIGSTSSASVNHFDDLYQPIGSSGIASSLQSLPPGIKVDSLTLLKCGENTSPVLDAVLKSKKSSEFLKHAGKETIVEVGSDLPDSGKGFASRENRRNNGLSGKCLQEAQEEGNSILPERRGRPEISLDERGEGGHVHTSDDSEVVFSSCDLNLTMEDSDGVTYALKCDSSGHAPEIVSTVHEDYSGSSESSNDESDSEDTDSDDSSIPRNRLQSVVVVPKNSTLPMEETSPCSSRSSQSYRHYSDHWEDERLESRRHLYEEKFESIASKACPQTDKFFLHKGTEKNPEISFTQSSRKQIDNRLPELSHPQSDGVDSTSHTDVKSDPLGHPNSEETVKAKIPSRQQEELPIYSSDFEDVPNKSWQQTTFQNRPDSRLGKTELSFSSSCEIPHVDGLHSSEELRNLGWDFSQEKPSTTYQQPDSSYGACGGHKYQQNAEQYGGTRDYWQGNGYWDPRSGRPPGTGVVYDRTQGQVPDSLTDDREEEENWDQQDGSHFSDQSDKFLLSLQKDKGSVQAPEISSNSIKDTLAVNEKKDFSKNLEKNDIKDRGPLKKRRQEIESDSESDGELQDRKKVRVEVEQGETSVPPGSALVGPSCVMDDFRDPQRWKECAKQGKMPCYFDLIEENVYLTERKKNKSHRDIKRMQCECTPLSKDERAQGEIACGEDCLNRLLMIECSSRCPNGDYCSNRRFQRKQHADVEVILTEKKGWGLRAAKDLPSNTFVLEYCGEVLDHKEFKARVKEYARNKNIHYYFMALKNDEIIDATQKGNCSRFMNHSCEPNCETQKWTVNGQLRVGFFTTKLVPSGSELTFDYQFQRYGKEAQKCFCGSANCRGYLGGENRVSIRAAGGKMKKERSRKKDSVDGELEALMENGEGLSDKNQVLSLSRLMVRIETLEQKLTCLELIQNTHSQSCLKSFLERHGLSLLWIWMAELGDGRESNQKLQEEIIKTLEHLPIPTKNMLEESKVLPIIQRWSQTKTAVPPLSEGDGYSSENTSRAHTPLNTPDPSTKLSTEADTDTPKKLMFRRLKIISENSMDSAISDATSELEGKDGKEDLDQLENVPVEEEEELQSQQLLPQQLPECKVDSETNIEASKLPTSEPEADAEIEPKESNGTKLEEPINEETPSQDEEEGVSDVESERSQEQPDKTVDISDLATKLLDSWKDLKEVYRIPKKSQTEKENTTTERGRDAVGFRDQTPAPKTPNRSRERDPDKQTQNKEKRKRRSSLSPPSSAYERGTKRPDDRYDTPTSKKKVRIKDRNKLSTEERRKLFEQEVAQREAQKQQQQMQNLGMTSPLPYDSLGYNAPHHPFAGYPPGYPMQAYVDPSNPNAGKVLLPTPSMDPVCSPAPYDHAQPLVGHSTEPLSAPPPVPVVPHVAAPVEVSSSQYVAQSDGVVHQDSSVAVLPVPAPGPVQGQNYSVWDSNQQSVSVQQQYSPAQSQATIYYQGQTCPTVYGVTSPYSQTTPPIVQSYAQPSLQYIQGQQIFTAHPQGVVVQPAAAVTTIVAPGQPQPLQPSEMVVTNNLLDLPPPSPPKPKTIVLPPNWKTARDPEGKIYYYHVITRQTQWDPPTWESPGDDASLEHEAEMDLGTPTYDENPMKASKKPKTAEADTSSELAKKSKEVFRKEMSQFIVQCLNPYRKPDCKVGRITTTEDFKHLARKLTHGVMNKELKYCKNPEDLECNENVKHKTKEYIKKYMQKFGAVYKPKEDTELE
# Sequence of RNA-directed RNA polymerase (O39930 whole entry): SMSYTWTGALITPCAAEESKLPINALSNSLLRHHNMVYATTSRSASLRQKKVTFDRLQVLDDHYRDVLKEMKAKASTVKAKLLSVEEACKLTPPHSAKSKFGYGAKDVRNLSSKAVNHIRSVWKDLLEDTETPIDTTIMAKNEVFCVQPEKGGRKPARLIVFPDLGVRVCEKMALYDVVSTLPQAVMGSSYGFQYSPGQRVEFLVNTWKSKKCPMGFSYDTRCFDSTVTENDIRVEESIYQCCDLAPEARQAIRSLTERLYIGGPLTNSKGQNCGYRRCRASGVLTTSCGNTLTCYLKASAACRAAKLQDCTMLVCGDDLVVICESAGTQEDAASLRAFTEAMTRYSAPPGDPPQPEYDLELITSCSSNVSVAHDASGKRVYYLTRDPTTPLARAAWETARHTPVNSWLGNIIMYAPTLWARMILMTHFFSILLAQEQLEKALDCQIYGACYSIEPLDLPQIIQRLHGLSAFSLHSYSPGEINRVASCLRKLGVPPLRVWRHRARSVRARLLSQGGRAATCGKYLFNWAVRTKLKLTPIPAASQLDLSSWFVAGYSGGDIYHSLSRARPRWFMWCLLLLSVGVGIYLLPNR
smiles,measurement,setting,value
O=c1c2ccccc2n(Cc2cn(CCCOCc3ccccc3)nn2)c(=O)n1Cc1ccccc1,pEC50,Human alphaherpesvirus 3 [1],< 4.70
NC(=O)c1ncn([C@@H]2O[C@H](CO)[C@@H](O)[C@H]2O)n1 [RIBAVIRIN],EC50,SARS-CoV [2],20 µg/mL
same,EC50,SARS-CoV [3],80 µg/mL
same,CC50 at 72 h,[4],> 200 µg/mL
O=c1[nH]cnc2c([C@@H]3N[C@H](CO)[C@@H](O)[C@H]3O)c[nH]c12 [FORODESINE],CC50,[5],> 100 µM
Nc1ncnc2c1ncn2[C@@H]1O[C@H](C[C@H](CC[C@H](N)C(=O)O)NCc2ccccc2)[C@@H](O)[C@H]1O,pIC50,[6],6.32
O=c1nc2c(cn1[C@H]1C[C@H](O)[C@@H](CO)O1)Oc1ccccc1N2,CC50,HEL,> 100 µM
Nc1ncnc2c1ncn2[C@@H]1O[C@H](CO)[C@@H](O)[C@@H]1O [VIDARABINE],CC50,[5],> 100 µM
same,pEC50,SARS-CoV-2,6.60
COc1c(C)c2c(c(O)c1C/C=C(\C)CCC(=O)O)C(=O)OC2 [MYCOPHENOLIC ACID],pEC50,SARS-CoV [7],< 4.52
same,CC50,[8],> 30 µM
Nc1ncnc2c1c(C#Cc1cnc3ccccc3c1)cn2[C@@H]1O[C@H](CSCC[C@H](N)C(=O)O)[C@@H](O)[C@H]1O,pIC50,[9],8.52
O=c1c2ccccc2n(Cc2cn(CCCOCc3ccccc3)nn2)c(=O)n1Cc1ccc(F)cc1,pEC50,Human alphaherpesvirus 3 [1],4.91
Cc1nc(N)c2c(C(N)=O)cc([C@@H]3O[C@H](CO)[C@@H](O)[C@H]3O)n2n1,pEC50,Human coronavirus OC43,6.19
same,CC50,[10],45 µM
O=c1nc2oc(CCCCCCCCCBr)cc2cn1[C@H]1C[C@H](O)[C@@H](CO)O1,pEC50,Human alphaherpesvirus 3 [11],7.51
same,CC50,[12],> 50 µM
O=c1nc2oc(CCCCCCCCCCl)cc2cn1[C@H]1C[C@H](O)[C@@H](CO)O1,pEC50,Human alphaherpesvirus 3 [11],7.92
same,CC50,[12],200 µM
C#CCn1c(=O)n(C(=O)c2ccccc2F)c(=O)c2ccccc21,pEC50,Human alphaherpesvirus 3 [1],5.55
same,CC50,HMEC-1,> 100 µM
C#CCn1c(=O)n(C(=O)c2ccccc2)c(=O)c2ccccc21,pEC50,Human alphaherpesvirus 3 [1],5.27
same,CC50,HMEC-1,11.2 µM
Nc1ccn(C[C@@H](CO)OCP(=O)(O)O)c(=O)n1 [CIDOFOVIR ANHYDROUS],pEC50,Vaccinia virus,4.56
same,CC50,[13],> 100 µM
Nc1nccc2c1ncn2[C@@H]1C=C(CO)[C@@H](O)[C@H]1O,pEC50,Ebolavirus,4.52
same,CC50,[14],> 100 µM
Nc1nc2c(ncn2C[Se]CCO)c(=O)[nH]1,CC50,[15],> 100 µM
same,pEC50,Human alphaherpesvirus 1,5.83
same,pEC50,Human alphaherpesvirus 2,5.20
CC(C)C(=O)OC[C@H]1O[C@@H](n2ccc(NO)nc2=O)[C@H](O)[C@@H]1O [MOLNUPIRAVIR],CC50,[5],> 100 µM
same,pEC50,SARS-CoV-2,5.97
CC(C)Nc1nc2cc(Cl)c(Cl)cc2n1[C@H]1O[C@@H](CO)[C@H](O)[C@@H]1O [MARIBAVIR],CC50,[5],> 100 µM
CC(C)=CCNc1ncnc2c1ncn2[C@@H]1O[C@H](CO)[C@@H](O)[C@H]1O [RIBOPRINE],CC50,[5],> 100 µM
CC(C)OC(=O)[C@H](C)N[P@](=O)(OC[C@H]1O[C@@H](n2ccc(=O)[nH]c2=O)[C@](C)(F)[C@@H]1O)Oc1ccccc1 [SOFOSBUVIR],pEC50,Hepatitis C virus [16],7.04
O=c1nc(NO)ccn1[C@@H]1O[C@H](CO)[C@@H](O)[C@H]1O [N-HYDROXYCYTIDINE],pIC50,[17],4.30
same,pEC50,Hepatitis C virus [18],5.30
Nc1ncnc2c1ncn2[C@@H]1O[C@H](C[C@@H](N)CC[C@H](N)C(=O)O)[C@@H](O)[C@H]1O [SINEFUNGIN],pIC50,[6],4.55
COc1ccc(C(OC[C@H]2O[C@@H](n3cc4c(nc3=O)Nc3ccccc3O4)C[C@@H]2O)(c2ccccc2)c2ccc(OC)cc2)cc1,CC50,HEL,12.2 µM
same,pEC50,Human alphaherpesvirus 3 [19],5.82
NC(=O)c1nc(F)cnc1O [FAVIPIRAVIR],EC50,Influenza A virus [20],0.03 µg/mL
same,EC50,Influenza A virus [21],0.07 µg/mL
same,CC50 at 48 h,[22],> 100 µM
O[C@@H]1[C@H](O)[C@H](O)CO[C@H]1Cn1c(Br)nc2cc(Cl)c(Cl)cc21,pEC50,Human betaherpesvirus 5,5.85
Cc1ncnc2c1c(/C=C/c1cccs1)cn2[C@@H]1O[C@H](CO)[C@@H](O)[C@@]1(C)F,pEC50,Influenza A virus [23],5.40
same,pEC50,Influenza A virus [24],5.44
same,CC50 at 72 h,[25],> 100 µM
NC(=O)c1ncn([C@@H]2O[C@H](CO)[C@@H](O)[C@H]2O)c1O [MIZORIBINE],EC50,SARS-CoV [2],3.5 µg/mL
same,EC50,SARS-CoV [3],16 µg/mL
same,CC50 at 72 h,[4],> 200 µg/mL
C#Cc1c(C(N)=O)ncn1[C@@H]1O[C@H](CO)[C@@H](O)[C@H]1O,pEC50,SARS-CoV [7],< 4.40
same,CC50,[8],> 40 µM
Nc1nc2c(ncn2C[Se]C(CO)CO)c(=O)[nH]1,CC50,[15],> 100 µM
same,pEC50,Human betaherpesvirus 5,4.27
CCC(CC)COC(=O)[C@H](C)N[P@](=O)(OC[C@H]1O[C@@](C#N)(c2ccc3c(N)ncnn23)[C@H](O)[C@@H]1O)Oc1ccccc1 [REMDESIVIR],CC50,[5],> 100 µM
same,pEC50,SARS-CoV-2,6.01
COc1ccc(C(OC[C@H]2O[C@@H](n3cc4c(nc3=O)Nc3ccccc3O4)[C@H](O)[C@@H]2O)(c2ccccc2)c2ccc(OC)cc2)cc1,CC50,HEL,9.7 µM
same,pEC50,Human alphaherpesvirus 3 [19],5.57
Cc1ncnc2c1c(/C=C/c1ccccn1)cn2[C@@H]1O[C@H](CO)[C@@H](O)[C@@]1(C)F,pEC50,Influenza A virus [23],5.23
same,pEC50,Influenza A virus [24],5.16
same,CC50 at 72 h,[25],> 100 µM
O=c1nc2oc(CCCCCCCCCF)cc2cn1[C@H]1C[C@H](O)[C@@H](CO)O1,pEC50,Human alphaherpesvirus 3 [11],7.85
same,CC50,[12],200 µM
Nc1nccc2c1ncn2[C@@H]1C[C@H](CO)[C@@H](O)[C@H]1O [3-DEAZAARISTEROMYCIN A],pEC50,Ebolavirus,5.70
same,CC50,[14],> 100 µM
COc1ccc(C(OC[C@H]2O[C@@H](n3cc4c(nc3=O)Nc3c(OCCN)cccc3O4)C[C@@H]2O)(c2ccccc2)c2ccc(OC)cc2)cc1,CC50,HEL,14.4 µM
same,pEC50,Human alphaherpesvirus 3 [19],5.77
COc1nc(N)nc2c1ncn2[C@@H]1O[C@H](CO)[C@@H](O)[C@@H]1O [NELARABINE],CC50,[5],> 100 µM
OC[C@H]1O[C@@H](n2cnc3c(N[C@@H]4CCOC4)ncnc32)[C@H](O)[C@@H]1O [TECADENOSON],CC50,[5],> 100 µM
same,pEC50,SARS-CoV-2,5.95
O=c1nc2oc(CCCCCCCCCI)cc2cn1[C@H]1C[C@H](O)[C@@H](CO)O1,pEC50,Human alphaherpesvirus 3 [11],7.47
same,CC50,[12],> 200 µM
OC[C@@H]1O[C@H](n2cnc3cc(Br)c(Br)cc32)[C@@H](O)[C@H]1O,pEC50,Human betaherpesvirus 5,5.92
CCCCCOCCCCCCCCCc1cc2cn([C@@H]3CC[C@H](CO)O3)c(=O)nc2o1,pEC50,Vaccinia virus,6.72
same,CC50,[13],> 100 µM
NC(=O)c1cc([C@@H]2O[C@H](CO)[C@@H](O)[C@H]2O)n2nc(CF)nc(N)c12,pEC50,Human coronavirus OC43,5.89
same,CC50,[10],45 µM
